Results reported in US20130150376A1, “Novel Sultam Compounds” (PFIZER INC., priority 2010, published 2013).
Counter-ions that a name gives are not always drawn. Like-named read-outs stand apart in the source and are kept apart here.

Target: T1, BACE1 enzyme (soluble, truncated BACE enzyme, BACE1deltaTM96His) (Homo sapiens, UniProt P56817)
T1 construct: soluble, truncated BACE enzyme (BACE1deltaTM96His); His; made in house
Assay: BACE1 Fluorescent Polarization (FP) Assay
Type: biochemical
Conditions: geometric mean of 2-4 IC50 determinations unless footnoted (^2: 5-6 determinations; ^4: single determination)
Outline: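 Soluble truncated His-tagged BACE1 (BACE1deltaTM96His, from CHO-K1 conditioned media; 0.1 nM final) with biotinylated Oregon green peptide substrate (150 nM final), in 100 mM sodium acetate pH 4.5, 0.001% Tween-20. Compounds in ½ log series from 100 μM top; 3 h at 37° C. Stopped with streptavidin; cleavage read as Δ mP fluorescence polarization (Ex485/Em530).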

[1] = 11-point curve, read-out: BACE activity, 11-point curve, IC50

T1 sequence (P56817 46-457): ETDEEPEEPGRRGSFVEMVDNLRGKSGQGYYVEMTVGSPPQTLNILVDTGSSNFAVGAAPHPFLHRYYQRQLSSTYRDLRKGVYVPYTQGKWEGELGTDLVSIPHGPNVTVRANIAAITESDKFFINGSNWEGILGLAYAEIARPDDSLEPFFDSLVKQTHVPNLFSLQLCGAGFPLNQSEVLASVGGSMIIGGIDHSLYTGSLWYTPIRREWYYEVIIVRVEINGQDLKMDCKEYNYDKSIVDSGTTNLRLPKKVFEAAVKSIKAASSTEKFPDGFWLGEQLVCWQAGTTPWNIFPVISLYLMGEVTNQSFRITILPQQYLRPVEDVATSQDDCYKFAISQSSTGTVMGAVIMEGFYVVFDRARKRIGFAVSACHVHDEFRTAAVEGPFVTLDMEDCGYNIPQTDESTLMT

| Structure (SMILES) | IC50 [1] | IC50 (8-point curve, read-out: BACE activity, 8-point curve, IC50) |
| --- | --- | --- |
| C[C@H]1C[C@]2(CCN1Cc1ccc(O)c(C3CCC3)c1)C(=O)CS(=O)(=O)N2c1cccc(F)c1 [Example 84, (5R,7S)-8-(3-cyclobutyl-4-hydroxybenzyl)-1-(3-fluorophenyl)-7-methyl-2-thia-1,8-diazaspiro[4.5]decan-4-one 2,2-dioxide] | 337 nM |  |
| C[C@H]1C[C@]2(CCN1Cc1ccc(O)c(C3CCC3)c1)CCS(=O)(=O)N2c1cnccn1 [Example 87, 2-cyclobutyl-4-{[(5R,7S)-7-methyl-2,2-dioxido-1-(pyrazin-2-yl)-2-thia-1,8-diazaspiro[4.5]dec-8-yl]methyl}phenol] | 2670 nM |  |
| Cc1csnc1-c1cc(CN2CC[C@]3(CCS(=O)(=O)N3c3cnccn3)C[C@@H]2C)ccc1O [Example 88, 4-{[(5R,7S)-7-methyl-2,2-dioxido-1-(pyrazin-2-yl)-2-thia-1,8-diazaspiro[4.5]dec-8-yl]methyl}-2-(4-methylisothiazol-3-yl)phenol] | 457 nM |  |
| Cc1scnc1-c1cc(CN2CC[C@]3(CCS(=O)(=O)N3c3cnccn3)C[C@@H]2C)ccc1O [Example 89, 4-{[(5R,7S)-7-methyl-2,2-dioxido-1-(pyrazin-2-yl)-2-thia-1,8-diazaspiro[4.5]dec-8-yl]methyl}-2-(5-methyl-1,3-thiazol-4-yl)phenol] | 1230 nM | 64.9 nM |
| Cc1scnc1-c1cc(CN2CC[C@]3(CCS(=O)(=O)N3c3ccccn3)C[C@@H]2C)ccc1O [Example 90, 4-{[(5R,7S)-7-methyl-2,2-dioxido-1-(pyridin-2-yl)-2-thia-1,8-diazaspiro[4.5]dec-8-yl]methyl}-2-(5-methyl-1,3-thiazol-4-yl)phenol] | 3280 nM |  |
| Cc1csnc1-c1cc(CN2CC[C@]3(CCS(=O)(=O)N3c3ccccn3)C[C@@H]2C)ccc1O [Example 91, 4-{[(5R,7S)-7-methyl-2,2-dioxido-1-(pyridin-2-yl)-2-thia-1,8-diazaspiro[4.5]dec-8-yl]methyl}-2-(4-methylisothiazol-3-yl)phenol] | 763 nM |  |
| C[C@H]1C[C@]2(CCN1Cc1ccc(O)c(C3CCC3)c1)CCS(=O)(=O)N2c1ccccn1 [Example 92, 2-cyclobutyl-4-{[(5R,7S)-7-methyl-2,2-dioxido-1-(pyridin-2-yl)-2-thia-1,8-diazaspiro[4.5]dec-8-yl]methyl}phenol] | 4190 nM |  |

Results, then the compound that gave them:

| IC50 [1] | IC50 (8-point curve, read-out: BACE activity, 8-point curve, IC50) | Structure (SMILES) |
| --- | --- | --- |
| 20.9 nM |  | Cc1csnc1-c1cc(CN2CC[C@@]3(C[C@@H]2C)C(=O)CS(=O)(=O)N3c2cccc(F)c2)ccc1O [Example 82, (5R,7S)-1-(3-fluorophenyl)-8-[4-hydroxy-3-(4-methylisothiazol-3-yl)benzyl]-7-methyl-2-thia-1,8-diazaspiro[4.5]decan-4-one 2,2-dioxide] |
| 240 nM |  | Cc1scnc1-c1cc(CN2CC[C@@]3(C[C@@H]2C)C(=O)CS(=O)(=O)N3c2cccc(F)c2)ccc1O [Example 83, (5R,7S)-1-(3-fluorophenyl)-8-[4-hydroxy-3-(5-methyl-1,3-thiazol-4-yl)benzyl]-7-methyl-2-thia-1,8-diazaspiro[4.5]decan-4-one 2,2-dioxide] |
| 715 nM |  | Cc1cccnc1-c1cc(CN2CC[C@@]3(C[C@@H]2C)C(=O)CS(=O)(=O)N3c2cccc(F)c2)ccc1O [Example 85, (5R,7S)-1-(3-fluorophenyl)-8-[4-hydroxy-3-(3-methylpyridin-2-yl)benzyl]-7-methyl-2-thia-1,8-diazaspiro[4.5]decan-4-one 2,2-dioxide] |
| 117 nM |  | COC1=CS(=O)(=O)N(c2cccc(F)c2)[C@@]12CCN(Cc1ccc(O)c(-c3nscc3C)c1)[C@@H](C)C2 [Example 86, 4-{[(5R,7S)-1-(3-fluorophenyl)-4-methoxy-7-methyl-2,2-dioxido-2-thia-1,8-diazaspiro[4.5]dec-3-en-8-yl]methyl}-2-(4-methylisothiazol-3-yl)phenol, ammonium salt] |
